ChEMBL document CHEMBL3751695, “Cationic lipid-conjugated hydrocortisone as selective antitumor agent” (Eur J Med Chem, 2016)
pIC50: −log10 of the molar value. The source made the active and inactive calls. The calls are words filed in the database; no cut-off is given here.

Assays:
B16-F10 [1] = assay: Induction of apoptosis in mouse B16F10 cells assessed as viable cells at 20 uM after 24 hrs by annexin-V-FITC/propidium iodide staining based flow cytometry (reference value: 93.66 %); assay type: functional; details: B16-F10, 24 h, read-out: Activity
RAW264.7 [2] = assay: Induction of apoptosis in mouse RAW264.7 cells assessed as early apoptotic cells at 20 uM after 24 hrs by annexin-V-FITC/propidium iodide staining based flow cytometry (reference value: 3.44 %); assay type: cell-based; details: raw264.7, 24 h
HeLa = assay: Cytotoxicity against human HeLa cells after 72 hrs by MTT assay; assay type: functional, cell-based
A549 [3] = assay: Induction of apoptosis in human A549 cells assessed as necrotic cells at 20 uM after 24 hrs by annexin-V-FITC/propidium iodide staining based flow cytometry (reference value: 3.23 %); assay type: functional
[4] = Cell cycle arrest in mouse B16F10 cells assessed as accumulation at subG0/G1 phase at 20 uM after 24 hrs by propidium iodide staining based flow cytometry (reference value: 40.7 %); assay type: functional; details: B16-F10
MDA-MB-231 [5] = assay: Induction of apoptosis in human MDA-MB-231 cells assessed as necrotic cells at 20 uM after 24 hrs by annexin-V-FITC/propidium iodide staining based flow cytometry (reference value: 5.40 %); assay type: functional
B16-F10 [6] = assay: Induction of apoptosis in mouse B16F10 cells assessed as increase in ratio of Bax/Bcl2 level at 20 uM after 36 hrs by western blot analysis (reference value: 0.2); assay type: functional
B16-F10 [7] = assay: Antitumor activity against mouse B16F10 cells xenografted in C57BL/J mouse assessed as inhibition of tumor growth at 6.11 mg/kg, ip; assay type: functional, organism-based
A549 [8] = assay: Cytotoxicity against human A549 cells after 72 hrs by MTT assay; assay type: functional, cell-based; details: A549, 72 h
[9] = Antitumor activity in mouse B16F10 cells xenografted in C57BL/J mouse assessed as increase in ratio of Bax/Bcl2 in tumor lysates at 6.11 mg/kg, ip by western blot analysis (reference value: 0.4); assay type: functional, Neoplasm, B16-F10
B16-F10 [10] = assay: Induction of apoptosis in mouse B16F10 cells assessed as increase in cytochrome C level at 20 uM after 36 hrs by western blot analysis; assay type: functional, cell-based
[11] = Cell cycle arrest in mouse B16F10 cells assessed as accumulation at G1 phase at 20 uM after 24 hrs by propidium iodide staining based flow cytometry (reference value: 38.8 %); assay type: functional; details: B16-F10
[12] = Induction of apoptosis in mouse NIH/3T3 cells assessed as late apoptotic cells at 20 uM after 24 hrs by annexin-V-FITC/propidium iodide staining based flow cytometry (reference value: 0.28 %); assay type: cell-based; details: nih3t3, 24 h
[13] = Cytotoxicity against human SKOV3 cells after 72 hrs by MTT assay; assay type: functional, cell-based; details: SK-OV-3, 72 h
B16-F10 [14] = assay: Induction of apoptosis in mouse B16F10 cells assessed as increased Bax expression at 20 uM after 36 hrs by western blot analysis; assay type: functional, cell-based
B16-F10 [15] = assay: Induction of apoptosis in mouse B16F10 cells assessed as increase in cleaved caspase 3 level at 20 uM after 36 hrs by western blot analysis; assay type: functional, cell-based
RAW264.7 [16] = assay: Cytotoxicity against mouse RAW264.7 cells after 72 hrs by MTT assay; assay type: cell-based; details: RAW264.7, 72 h
[17] = Induction of apoptosis in mouse RAW264.7 cells assessed as viable cells at 20 uM after 24 hrs by annexin-V-FITC/propidium iodide staining based flow cytometry (reference value: 89.11 %); assay type: cell-based; details: read-out: Activity
B16-F10 [18] = assay: Induction of apoptosis in mouse B16F10 cells assessed as late apoptotic cells at 20 uM after 24 hrs by annexin-V-FITC/propidium iodide staining based flow cytometry (reference value: 4.47 %); assay type: functional
MDA-MB-231 [19] = assay: Induction of apoptosis in human MDA-MB-231 cells assessed as viable cells at 20 uM after 24 hrs by annexin-V-FITC/propidium iodide staining based flow cytometry (reference value: 90.77 %); assay type: functional; details: MDA-MB-231, 24 h, read-out: Activity
[20] = Cell cycle arrest in mouse B16F10 cells assessed as accumulation at S phase at 20 uM after 24 hrs by propidium iodide staining based flow cytometry (reference value: 5.4 %); assay type: functional; details: B16-F10
A549 [21] = assay: Induction of apoptosis in human A549 cells assessed as late apoptotic cells at 20 uM after 24 hrs by annexin-V-FITC/propidium iodide staining based flow cytometry (reference value: 7.40 %); assay type: functional
MCF7 = assay: Cytotoxicity against human MCF7 cells after 72 hrs by MTT assay; assay type: functional, cell-based; details: MCF7, 72 h
B16-F10 [22] = assay: Induction of apoptosis in mouse B16F10 cells assessed as increase in p53 expression at 20 uM after 36 hrs by […]; assay type: functional, cell-based
RAW264.7 [23] = assay: Induction of apoptosis in mouse RAW264.7 cells assessed as late apoptotic cells at 20 uM after 24 hrs by annexin-V-FITC/propidium iodide staining based flow cytometry (reference value: 5.64 %); assay type: cell-based; details: raw264.7, 24 h
[24] = Induction of apoptosis in mouse NIH/3T3 cells assessed as viable cells at 20 uM after 24 hrs by annexin-V-FITC/propidium iodide staining based flow cytometry (reference value: 99.06 %); assay type: cell-based, NIH3T3; details: read-out: Activity
RAW264.7 [25] = assay: Induction of apoptosis in mouse RAW264.7 cells assessed as necrotic cells at 20 uM after 24 hrs by annexin-V-FITC/propidium iodide staining based flow cytometry (reference value: 1.81%); assay type: cell-based; details: raw264.7, 24 h
A549 [26] = assay: Induction of apoptosis in human A549 cells assessed as viable cells at 20 uM after 24 hrs by annexin-V-FITC/propidium iodide staining based flow cytometry (reference value: 87.96 %); assay type: functional; details: A549, 24 h, read-out: Activity
B16-F10 [27] = assay: Induction of apoptosis in mouse B16F10 cells assessed as early apoptotic cells at 20 uM after 24 hrs by annexin-V-FITC/propidium iodide staining based flow cytometry (reference value: 0.46 %); assay type: functional
[28] = Toxicity in C57BL/J mouse xenografted with mouse B16F10 cells assessed as mortality rate at 6.11 mg/kg, ip measured 45 days after tumor inoculation; assay type: organism-based, B16-F10; details: in vivo, read-out: Activity
[29] = Induction of apoptosis in mouse NIH/3T3 cells assessed as early apoptotic cells at 20 uM after 24 hrs by annexin-V-FITC/propidium iodide staining based flow cytometry (reference value: 0.43 %); assay type: cell-based; details: nih3t3, 24 h
[30] = Cytotoxicity against mouse NIH/3T3 cells after 72 hrs by MTT assay; assay type: cell-based; details: NIH3T3, 72 h
Gallus gallus = organism: Gallus gallus; assay: Antiangiogenic activity in chicken embryo assessed as inhibition of neovascularization at 40 uM after 4 hrs by microscopic analysis; assay type: functional, tissue-based
[31] = Cell cycle arrest in mouse B16F10 cells assessed as accumulation at G2/M phase at 20 uM after 24 hrs by propidium iodide staining based flow cytometry (reference value: 15.2 %); assay type: functional; details: B16-F10
MDA-MB-231 [32] = assay: Induction of apoptosis in human MDA-MB-231 cells assessed as early apoptotic cells at 20 uM after 24 hrs by annexin-V-FITC/propidium iodide staining based flow cytometry (reference value: 0.58 %); assay type: functional
[33] = Induction of apoptosis in mouse NIH/3T3 cells assessed as necrotic cells at 20 uM after 24 hrs by annexin-V-FITC/propidium iodide staining based flow cytometry (reference value: 0.24 %); assay type: cell-based; details: nih3t3, 24 h
MDA-MB-231 [34] = assay: Induction of apoptosis in human MDA-MB-231 cells assessed as late apoptotic cells at 20 uM after 24 hrs by annexin-V-FITC/propidium iodide staining based flow cytometry (reference value: 3.25 %); assay type: functional
B16-F10 [35] = assay: Induction of apoptosis in mouse B16F10 cells assessed as necrotic cells at 20 uM after 24 hrs by annexin-V-FITC/propidium iodide staining based flow cytometry (reference value: 1.41 %); assay type: functional
[36] = Cytotoxicity against mouse B16F10 cells after 72 hrs by MTT assay; assay type: functional, cell-based; details: B16-F10, 72 h
A549 [37] = assay: Induction of apoptosis in human A549 cells assessed as early apoptotic cells at 20 uM after 24 hrs by annexin-V-FITC/propidium iodide staining based flow cytometry (reference value: 1.41 %); assay type: functional
[38] = Cytotoxicity against mouse B16F10 cells at 10 uM after 72 hrs by MTT assay in presence of 10 uM HYD; assay type: functional, B16-F10
[39] = Cytotoxicity against mouse B16F10 cells at 20 uM after 72 hrs by MTT assay in presence of 20 uM HYD; assay type: functional, B16-F10
[40] = Cytotoxicity against mouse B16F10 cells at 10 and 20 uM after 72 hrs by MTT assay; assay type: functional, B16-F10

SMILES | viability at 20 µM (B16-F10 [1]) [%] | Activity (RAW264.7 [2]) [%] | Activity (A549 [3]) [%] | pIC50 (A549 [8]) | Activity [12] [%] | pIC50 (RAW264.7 [16]) | viability at 24 h, 20 µM [17] [%] | Activity (B16-F10 [18]) [%] | Activity (A549 [21]) [%] | pIC50 (MCF7) | Activity (RAW264.7 [23]) [%] | viability at 24 h, 20 µM [24] [%] | Activity (RAW264.7 [25]) [%] | viability at 20 µM (A549 [26]) [%] | Activity (B16-F10 [27]) [%] | Activity [29] [%] | pIC50 [30] | Activity [33] [%] | Activity (B16-F10 [35]) [%] | pIC50 [36] | also measured
C[C@]12CCC(=O)C=C1CC[C@@H]1[C@@H]2[C@@H](O)C[C@@]2(C)[C@H]1CC[C@]2(O)C(=O)CO [HYDROCORTISONE] | 89 | 2.39 | 2.97 | < 4.70 | 0.16 | < 4.70 | 93.8 | 9.14 | 7.09 | < 4.70 | 3.13 | 99.5 | 0.69 | 88.4 | 0.77 | 0.01 | < 4.70 | 0.1 | 1.04 | < 4.70 | pIC50 (HeLa): < 4.70; Activity [4]: 56.6%; Activity (MDA-MB-231 [5]): 2.46%; Ratio (B16-F10 [6]): 0.3; inhibition (B16-F10 [7]): Active; Ratio [9]: 0.8; Activity (B16-F10 [10]): Active; Activity [11]: 20.9%; pIC50 [13]: < 4.70; Activity (B16-F10 [14]): Active; Activity (B16-F10 [15]): Active; viability at 20 µM (MDA-MB-231 [19]): 87.4%; Activity [20]: 4.6%; Activity (B16-F10 [22]): Active; mortality at 1080 h [28]: 70%; inhibition (Gallus gallus): inactive; Activity [31]: 17.9%; Activity (MDA-MB-231 [32]): 2.05%; Activity (MDA-MB-231 [34]): 8.1%; Activity (A549 [37]): 1.55%
CCCCCCCCCC[N+](C)(CCCCCCCCCC)CCNC(=O)[C@@]1(O)CC[C@H]2[C@@H]3CCC4=CC(=O)CC[C@]4(C)[C@H]3[C@@H](O)C[C@@]21C |  |  |  | 4.90 |  | 5.21 |  |  |  | 5.43 |  |  |  |  |  |  | 5.42 |  |  | 5.33 | 
CCCCCCCCCCCCCC[N+](C)(CCCCCCCCCCCCCC)CCNC(=O)[C@@]1(O)CC[C@H]2[C@@H]3CCC4=CC(=O)CC[C@]4(C)[C@H]3[C@@H](O)C[C@@]21C |  |  |  | 5.48 |  | 5.06 |  |  |  | 4.87 |  |  |  |  |  |  | 5.31 |  |  | 4.79 | 
CCCCCCCCCCCC[N+](C)(CCCCCCCCCCCC)CCNC(=O)[C@@]1(O)CC[C@H]2[C@@H]3CCC4=CC(=O)CC[C@]4(C)[C@H]3[C@@H](O)C[C@@]21C |  |  |  | 5.47 |  | 5.40 |  |  |  | 5.34 |  |  |  |  |  |  | 5.47 |  |  | 5.47 | 
CCCCCCCC[N+](C)(CCCCCCCC)CCNC(=O)[C@@]1(O)CC[C@H]2[C@@H]3CCC4=CC(=O)CC[C@]4(C)[C@H]3[C@@H](O)C[C@@]21C |  |  |  | 4.75 |  | 4.90 |  |  |  | 5.17 |  |  |  |  |  |  | 5.13 |  |  | 5.35 | 
CCCCCCCCCCCCCCCC[N+](C)(CCCCCCCCCCCCCCCC)CCNC(=O)OC(C)(C)C.[Cl-] | 81.5 | 3.66 | 1.65 |  | 0.96 |  | 91.3 | 12.56 | 13.95 |  | 4.18 | 94.9 | 0.86 | 81.7 | 1.75 | 0.94 |  | 3.23 | 4.16 |  | Activity [38]: 20%; Activity [39]: 20%; Activity [40]: 20%; Activity (A549 [37]): 2.7%
